Converted amounts (≈) assume the structure as drawn.
Experiments:
[1] = system: C. neoformans ATCC 208821; assay: Antifungal MIC (CO-ADD), C. neoformans; assay type: cell-based; details: Cryptococcus neoformans, ATCC208821, top dose 32 µg/mL
In short: (§1)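 Yeast inocula prepared from YPD-agar colonies grown 3 days at 30 °C, diluted in YNB broth to 2.5 × 10^3 CFU/mL and incubated 36 h at 35 °C without shaking. C. albicans MIC read at OD530; C. neoformans MIC read at OD570–600 after 3 h with 0.006% resazurin.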

P. aeruginosa ATCC 27853 [2] = assay: Doxycycline potentiation against P. aeruginosa; assay type: cell-based, Pseudomonas aeruginosa; details: doxycycline at 2 µg/mL (4.5 µM); for Dox/Pa fold-change (intrinsic MIC / combination MIC): P. aeruginosa ATCC 27853; for Dox/Pa: concentration required to restore doxycycline activity (combination MIC): P. aeruginosa ATCC 27853, mean n = 3
Excerpt: (§2) These measurements were independently repeated in triplicate.

[3] = system: K. pneumoniae ATCC 700603; assay: MIC, broth microdilution (CO-ADD), K. pneumoniae; details: top dose 32 µg/mL
E. coli ATCC 25922 [4] = assay: Erythromycin potentiation against E. coli; assay type: cell-based, Escherichia coli; details: erythromycin at 2 µg/mL (2.7 µM); for Erythro/Ec fold-change (intrinsic MIC / combination MIC): E. coli; for Erythro/Ec: concentration required to restore erythromycin activity (combination MIC): mean n = 3
Excerpt: as §2

E. coli ATCC 25922 [5] = assay: MIC, broth dilution, E. coli; assay type: cell-based, Escherichia coli; details: Escherichia coli, ATCC25922; E. coli ATCC 25922, 18 h
[6] = Cytotoxicity assay (resazurin); assay type: cell-based; details: human, HEK293 cells, mean n = 2
MRSA ATCC 43300 = assay: MIC, broth microdilution (CO-ADD), MRSA; assay type: cell-based, methicillin-resistant S. aureus; details: Staphylococcus aureus; MRSA ATCC 43300; top dose 32 µg/mL; read-out: MIC MRSA
A. baumannii ATCC 19606 = assay: MIC, broth microdilution (CO-ADD), A. baumannii; assay type: cell-based, Acinetobacter baumannii; details: Acinetobacter baumannii, ATCC19606, top dose 32 µg/mL
S. aureus ATCC 25923 = assay: MIC, broth dilution, S. aureus; assay type: cell-based, Staphylococcus aureus; details: Staphylococcus aureus, ATCC25923; S. aureus ATCC 25923, 18 h; read-out: MIC Sa
C. albicans ATCC 90028 = assay: Antifungal MIC (CO-ADD), C. albicans; assay type: cell-based; details: Candida albicans, ATCC90028, top dose 32 µg/mL
In short: as §1

human red blood cells = assay: Hemolytic assay; assay type: cell-based; details: 10% hemolytic activity, mean n = 2
In short: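 Washed human erythrocytes (0.5 × 10^8 cells/mL in 0.9% NaCl) were incubated with compounds for 1 h at 37 °C. Haemoglobin release was read as supernatant OD405. HC10 and HC50 came from sigmoidal dose–response fits.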

P. aeruginosa ATCC 27853 [7] = assay: MIC, broth dilution, P. aeruginosa; assay type: cell-based, Pseudomonas aeruginosa; details: Pseudomonas aeruginosa, ATCC27853; P. aeruginosa ATCC 27853, 18 h; read-out: MIC Pa

Row | MIC [1] | Dox/Pa fold-change (intrinsic MIC / combination MIC) (P. aeruginosa ATCC 27853 [2]) | Dox/Pa: concentration required to restore doxycycline activity (combination MIC) (P. aeruginosa ATCC 27853 [2]) | MIC Kp [3] | Erythro/Ec fold-change (intrinsic MIC / combination MIC) (E. coli ATCC 25922 [4]) | Erythro/Ec: concentration required to restore erythromycin activity (combination MIC) (E. coli ATCC 25922 [4]) | MIC (E. coli ATCC 25922 [5]) | MIC (MRSA ATCC 43300) | MIC (A. baumannii ATCC 19606) | MIC (S. aureus ATCC 25923) | MIC (C. albicans ATCC 90028) | MIC (P. aeruginosa ATCC 27853 [7]) | SMILES | IC50 at 20 h [6] | Hemolysis HC10 (human red blood cells)
1 | ≤ 0.31 µM | > 8 fold | 30.5 µM | >39 µM | 1 fold | 244 µM | 244 µM | 2.44 µM | > 39 µM | 122 µM | > 39 µM | > 244 µM | COc1cccc2c(C(=O)NCCCNCCCCCCCNCCCNC(=O)c3c[nH]c4c(OC)cccc34)c[nH]c12.O=C(O)C(F)(F)F.O=C(O)C(F)(F)F [Compound 17c] | > 39 µM | >39 µM
2 | ≤ 0.3 µM | > 4 fold | 60.0 µM | >38 µM | 2 fold | 120 µM | 240 µM (≈ 145 µg/mL) | ≤ 0.3 µM | > 38 µM | 120 µM (≈ 72.6 µg/mL) | > 38 µM | > 240 µM | COc1cccc2c(C(=O)NCCCNCCCCCCCCNCCCNC(=O)c3c[nH]c4c(OC)cccc34)c[nH]c12 [Compound 17d] | > 38 µM | >38 µM
3 | ≤ 0.29 µM | > 4 fold | 58.1 µM | >37 µM | 1 fold | > 232 µM | > 232 µM | ≤ 0.29 µM | > 37 µM | 232 µM | > 37 µM | > 232 µM | COc1cccc2c(C(=O)NCCCNCCCCCCCCCCNCCCNC(=O)c3c[nH]c4c(OC)cccc34)c[nH]c12.O=C(O)C(F)(F)F.O=C(O)C(F)(F)F [Compound 17e] | > 37 µM | >37 µM
4 | ≤ 0.28 µM | 4 fold | 56.2 µM | >36 µM | 0.5 fold | 56.2 µM | 28.1 µM | ≤ 0.28 µM | > 36 µM | 7.03 µM | 4.5 µM | 225 µM | COc1cccc2c(C(=O)NCCCNCCCCCCCCCCCCNCCCNC(=O)c3c[nH]c4c(OC)cccc34)c[nH]c12.O=C(O)C(F)(F)F.O=C(O)C(F)(F)F [Compound 17f] | > 36 µM | >36 µM
5 | ≤ 0.32 µM | > 8 fold | 32.4 µM | >41 µM | 4 fold | 32.4 µM | 129 µM (≈ 70.3 µg/mL) | > 41 µM | > 41 µM | 129 µM (≈ 70.3 µg/mL) | > 41 µM | > 259 µM | Cc1cccc2c(C(=O)NCCCNCCCCCCNCCCNC(=O)c3c[nH]c4c(C)cccc34)c[nH]c12 [Compound 18b] | > 41 µM | >41 µM
6 | ≤ 0.32 µM | 16 fold | 15.9 µM | >41 µM | 1 fold | > 254 µM | > 254 µM | ≤ 0.32 µM | > 41 µM | > 254 µM | > 41 µM | 254 µM (≈ 142 µg/mL) | Cc1cccc2c(C(=O)NCCCNCCCCCCCNCCCNC(=O)c3c[nH]c4c(C)cccc34)c[nH]c12 [Compound 18c] | > 41 µM | >41 µM
